According to the NIST ThermoML archive (doi:10.1016/j.jct.2018.07.012):

Assay: mn = molality of the nth substance listed, in mol/kg
Settings: for surface tension liquid-gas: Maximal bubble pressure; for mass density: 100 kPa, Liquid, Vibrating tube method

CC(=O)[O-].CCCn1cc[n+](C)c1 [1-propyl-3-methylimidazolium acetate] + O
Settings | mass density [kg/m3] | surface tension liquid-gas [mN/m]
288.15 K, m1 = 0.0113 | 1000.22 | 73.4
288.15 K, m1 = 0.0172 | 1000.35 | 73.2
288.15 K, m1 = 0.0279 | 1000.55 | 72.8
288.15 K, m1 = 0.0446 | 1000.78 | 72.5
288.15 K, m1 = 0.1119 | 1001.76 | 71
288.15 K, m1 = 0.1673 | 1002.56 | 69.8
288.15 K, m1 = 0.2244 | 1003.49 | 68.6
288.15 K, m1 = 0.2808 | 1004.43 | 67.4
288.15 K, m1 = 0.3352 | 1005.37 | 66.2
288.15 K, m1 = 0.3925 | 1006.31 | 65.1
288.15 K, m1 = 0.448 | 1007.25 | 64
288.15 K, m1 = 0.5037 | 1007.98 | 63
293.15 K, m1 = 0.0113 | 999.22 | 72.6
293.15 K, m1 = 0.0172 | 999.35 | 72.5
293.15 K, m1 = 0.0279 | 999.53 | 72.1
293.15 K, m1 = 0.0446 | 999.76 | 71.8
293.15 K, m1 = 0.1119 | 1000.68 | 70.5
293.15 K, m1 = 0.1673 | 1001.46 | 69
293.15 K, m1 = 0.2244 | 1002.37 | 67.8
293.15 K, m1 = 0.2808 | 1003.28 | 66.7
293.15 K, m1 = 0.3352 | 1004.16 | 65.5
293.15 K, m1 = 0.3925 | 1005.08 | 64.4
293.15 K, m1 = 0.448 | 1005.89 | 63.3
293.15 K, m1 = 0.5037 | 1006.64 | 62.4
298.15 K, m1 = 0.0113 | 997.99 | 71.8
298.15 K, m1 = 0.0172 | 998.1 | 71.6
298.15 K, m1 = 0.0279 | 998.25 | 71.3
298.15 K, m1 = 0.0446 | 998.46 | 70.9
298.15 K, m1 = 0.1119 | 999.35 | 69.6
298.15 K, m1 = 0.1673 | 1000.14 | 68.4
298.15 K, m1 = 0.2244 | 1001.01 | 67
298.15 K, m1 = 0.2808 | 1001.86 | 66
298.15 K, m1 = 0.3352 | 1002.67 | 64.8
298.15 K, m1 = 0.3925 | 1003.62 | 63.7
298.15 K, m1 = 0.448 | 1004.43 | 62.6
298.15 K, m1 = 0.5037 | 1005.19 | 61.6
303.15 K, m1 = 0.0113 | 996.54 | 71
303.15 K, m1 = 0.0172 | 996.62 | 70.8
303.15 K, m1 = 0.0279 | 996.78 | 70.5
303.15 K, m1 = 0.0446 | 996.99 | 70.1
303.15 K, m1 = 0.1119 | 997.84 | 68.8
303.15 K, m1 = 0.1673 | 998.61 | 67.6
303.15 K, m1 = 0.2244 | 999.46 | 66.3
303.15 K, m1 = 0.2808 | 1000.3 | 65.1
303.15 K, m1 = 0.3352 | 1001.12 | 64
303.15 K, m1 = 0.3925 | 1001.97 | 62.9
303.15 K, m1 = 0.448 | 1002.83 | 61.8
303.15 K, m1 = 0.5037 | 1003.47 | 60.9
308.15 K, m1 = 0.0113 | 994.86 | 70.2
308.15 K, m1 = 0.0172 | 994.92 | 70
308.15 K, m1 = 0.0279 | 995.09 | 69.7
308.15 K, m1 = 0.0446 | 995.28 | 69.3
308.15 K, m1 = 0.1119 | 996.14 | 68.1
308.15 K, m1 = 0.1673 | 996.89 | 66.8
308.15 K, m1 = 0.2244 | 997.74 | 65.4
308.15 K, m1 = 0.2808 | 998.56 | 64.4
308.15 K, m1 = 0.3352 | 999.31 | 63.3
308.15 K, m1 = 0.3925 | 1000.19 | 62.2
308.15 K, m1 = 0.448 | 1000.95 | 61.2
308.15 K, m1 = 0.5037 | 1001.66 | 60.2
313.15 K, m1 = 0.0113 | 992.97 | 69.3
313.15 K, m1 = 0.0172 | 993.03 | 69.1
313.15 K, m1 = 0.0279 | 993.19 | 68.8
313.15 K, m1 = 0.0446 | 993.36 | 68.5
313.15 K, m1 = 0.1119 | 994.21 | 67.1
313.15 K, m1 = 0.1673 | 994.99 | 65.9
313.15 K, m1 = 0.2244 | 995.82 | 64.7
313.15 K, m1 = 0.2808 | 996.66 | 63.6
313.15 K, m1 = 0.3352 | 997.38 | 62.4
313.15 K, m1 = 0.3925 | 998.21 | 61.4
313.15 K, m1 = 0.448 | 998.97 | 60.4
313.15 K, m1 = 0.5037 | 999.65 | 59.5
318.15 K, m1 = 0.0113 | 990.93 | 68.5
318.15 K, m1 = 0.0172 | 991.01 | 68.4
318.15 K, m1 = 0.0279 | 991.15 | 68
318.15 K, m1 = 0.0446 | 991.33 | 67.7
318.15 K, m1 = 0.1119 | 992.2 | 66.4
318.15 K, m1 = 0.1673 | 992.92 | 65.2
318.15 K, m1 = 0.2244 | 993.77 | 64.1
318.15 K, m1 = 0.2808 | 994.56 | 63
318.15 K, m1 = 0.3352 | 995.34 | 61.9
318.15 K, m1 = 0.3925 | 996.12 | 60.9
318.15 K, m1 = 0.448 | 996.87 | 59.8
318.15 K, m1 = 0.5037 | 997.59 | 58.9
